Reference: patent US20260216238A1, “TETRATHIOMOLYBDIC ACID FOR USE IN TREATING COPPER METABOLISM-ASSOCIATED DISEASES OR DISORDERS (WILSON DISEASE)” (Alexion Pharmaceuticals, Inc., priority 2023, published 2026)
Where two headings read alike, the source gives them in different places.

System: participants with WD
Excerpt: The term “dNCC” refers to NCC as directly measured using an NCC assay. For example, in certain embodiments of the methods, uses, or compositions (e.g., comprising tetrathiomolybdic acid or a pharmaceutically acceptable salt thereof) of the disclosure, dNCC is directly measured using the NCC assay as disclosed in PCT Patent Application Publication No. WO2021/050850, filed on Sep.
These participants had all intake (food and drink) and output (urine and feces) collected from Day −4 through Day −1 (baseline), from Day 1 through Day 8, and Day 25 through Day 39.

With bis-choline tetrathiomolybdate [TTM] the “Increase from Baseline in Directly Measured NCC, Mean” value (“Increase from Baseline” for short) (Day 1, 2 Hours Post-Dose) was 0.5004 µmol/L, the “Increase from Baseline” value (Day 1, 4 Hours Post-Dose) was 1.96 µmol/L and the “Increase from Baseline” value (Day 1, 5 Hours Post-Dose) was 2.719 µmol/L. For the same substance, the “Increase from Baseline” value (Day 1, 6 Hours Post-Dose) was 2.324 µmol/L, the “Increase from Baseline” value (Day 1, 8 Hours Post-Dose) was 2.402 µmol/L and the “Increase from Baseline” value (Day 1, 12 Hours Post-Dose) was 1.725 µmol/L. The “Increase from Baseline” value (Day 1, 24 Hours Post-Dose) was 1.063 µmol/L, the “Increase from Baseline” value (Day 4, Pre-Dose) was 2.677 µmol/L and the “Increase from Baseline” value (Day 5, Pre-Dose) was 3.144 µmol/L. The “Increase from Baseline” value (Day 6, Pre-Dose) was 3.574 µmol/L, the “Increase from Baseline” value (Day 7, Pre-Dose) was 3.7 µmol/L and the “Increase from Baseline” value (Day 25, 2 Hours Post-Dose) was 2.551 µmol/L. The “Increase from Baseline” value (Day 25, 4 Hours Post-Dose) was 3.443 µmol/L, the “Increase from Baseline” value (Day 25, 5 Hours Post-Dose) was 3.38 µmol/L and the “Increase from Baseline” value (Day 25, 6 Hours Post-Dose) was 4.44 µmol/L. The “Increase from Baseline” value (Day 25, 8 Hours Post-Dose) was 5.101 µmol/L, the “Increase from Baseline” value (Day 25, 12 Hours Post-Dose) was 4.917 µmol/L and the “Increase from Baseline” value (Day 25, 24 Hours Post-Dose) was 3.438 µmol/L. For the same substance, the “Increase from Baseline” value (Day 25, −0.5 Hours) was 2.121 µmol/L, the “Increase from Baseline” value (Day 27, Pre-Dose, N=2) was 2.767 µmol/L and the “Increase from Baseline” value (Day 28, Pre-Dose, N=2) was 2.327 µmol/L. For the same substance, the “Increase from Baseline” value (Day 29, 2 Hours Post-Dose) was 2.814 µmol/L, the “Increase from Baseline” value (Day 29, 4 Hours Post-Dose) was 3.38 µmol/L and the “Increase from Baseline” value (Day 29, 5 Hours Post-Dose) was 4.078 µmol/L. For the same substance, the “Increase from Baseline” value (Day 29, 6 Hours Post-Dose) was 4.686 µmol/L, the “Increase from Baseline” value (Day 29, 8 Hours Post-Dose) was 5.305 µmol/L and the “Increase from Baseline” value (Day 29, 12 Hours Post-Dose) was 4.749 µmol/L. For the same substance, the “Increase from Baseline” value (Day 29, 24 Hours Post-Dose) was 3.543 µmol/L, the “Increase from Baseline” value (Day 29, −0.5 Hours) was 2.662 µmol/L and the “Increase from Baseline” value (Day 31, Pre-Dose, N=2) was 4.121 µmol/L. For the same substance, the “Increase from Baseline” value (Day 32, Pre-Dose, N=1) was 8.131 µmol/L, the “Increase from Baseline” value (Day 33, Pre-Dose, N=2) was 4.231 µmol/L and the “Increase from Baseline” value (Day 34, Pre-Dose, N=2) was 4.103 µmol/L. The “Increase from Baseline” value (Day 35, Pre-Dose, N=2) was 4.49 µmol/L, the “Increase from Baseline” value (Day 36, Pre-Dose, N=2) was 3.465 µmol/L and the “Increase from Baseline” value (Day 37, Pre-Dose, N=2) was 4.168 µmol/L. For the same substance, the “Increase from Baseline” value (Day 38, Pre-Dose, N=1) was 7.643 µmol/L, the “Increase from Baseline” value (Day 39, 2 Hours Post-Dose) was 3.816 µmol/L and the “Increase from Baseline” value (Day 39, 4 Hours Post-Dose) was 5.578 µmol/L. For the same substance, the “Increase from Baseline” value (Day 39, 5 Hours Post-Dose) was 6.26 µmol/L, the “Increase from Baseline” value (Day 39, 6 Hours Post-Dose) was 6.659 µmol/L and the “Increase from Baseline” value (Day 39, 8 Hours Post-Dose) was 7.32 µmol/L. For the same substance, the “Increase from Baseline” value (Day 39, 12 Hours Post-Dose) was 6.554 µmol/L, the “Increase from Baseline” value (Day 39, 24 Hours Post-Dose) was 4.545 µmol/L and the “Increase from Baseline” value (Day 39, −0.5 Hours) was 3.412 µmol/L.
